Assay: Drug release experiments (phosphate buffer pH 7, 37° C.)
Type: physicochemical
Method: Furthermore drug release tests were carried out with biodegradable matrix polymers. The above mentioned polyester methacrylate networks were loaded with 5% gentamicin and enoxazin, respectively. Samples having a size of 1×2 cm^2 were cut open and placed into a medium for release (4 ml phosphate buffer, pH 7). The pieces of the films were placed in tubes for a centrifuge, in a manner allowing the buffer solution to contact the films from all sides. The centrifuge tubes were placed into a shaking water bath at 37° C. and at predetermined intervals the medium for release was exchanged completely in order to determine the amount of the drug released. […] Samples are placed into polypropylene centrifuge vessels (which may be closed) of a volume of 15 ml and placed into contact with 4 ml of the releasing medium. […] The release experiment is carried out in a temperature controlled shaking water bath at 37° C. with 60 revolutions per minute. The temperature is controlled with an accuracy of ±0.1 K. […] The experiment is concluded when all of the drug has been released. The establishment of the release profile occurs by means of determination of the released drug by UV-Vis-spectroscopy. The resulting release profiles represent the arithmetical average from parallel experiments regarding the release from three samples of one material. If the experiment is terminated prior to the complete release of the drug from the matrix, a determination of the drug remaining in the polymer network becomes necessary. […] Using 5 ml chloroform the networks are swollen, and destroyed mechanically using a glass rod. Using additional 5 ml chloroform the swollen enoxacin containing fragments are extracted. With […] containing networks extraction is carried out using 5 ml 2-propanol. […] The content of drug remaining in the matrix is added to the content as determined with the release experiment.

[1] = from amorphous matrix N-LG(18)-10 (FIG. 4)
[2] = matrix based on paradioxanone and caprolactone, unmodified

drug release profile [1] | drug release profile at the beginning of the release [2] | time until plateau of release is reached [2] | Compound | drug release profile (networks on the basis of polylactide-co-glycolide, segment Mn about 10000, 15 wt.-% glycolide content)
released more rapidly |  |  | CCOc1ccc2nc3cc(N)ccc3c(N)c2c1 [ethacridine lactate] | substantially linear release, with a slightly accelerated release at the beginning
step profile |  |  | O=C1CN(/N=C/c2ccc([N+](=O)[O-])o2)C(=O)N1 [nitrofurantoine] | 
 | rapid release (burst-effect) | within two days | gentamicin | 

From US8158143B2, “Systems for releasing active ingredients, based on biodegradable or biocompatible polymers with a shape memory effect” (Helmholtz-Zentrum Geesthacht Zentrum fuer Material- und …, priority 2000, dated 2012)
